Reference: patent US8512734B2, “Biocompatible coating of medical devices” (Katholieke Universiteit Leuven, K.U.Leuven R&D, priority 2004, dated 2013)

Assay: In-vitro release of β-estradiol from loaded zeogrid in simulated body fluid (HPLC)
Format: physicochemical
Settings: 10 mg loaded zeogrid in 20 ml SBF, room temperature, continuous stirring
Method: Loading of the zeogrid sample with β-estradiol proceeds as follows. 50 mg β-estradiol is dissolved in 100 ml methylenechloride. 500 mg of zeogrid is suspended in the solution. Everything is stirred during 24 hours in a closed container. After 24 hours, the container is opened and the methylenechloride is evaporated at room temperature. The resulting powder is further dried and kept during 24 hours under reduced pressure to remove the solvent.
Release of β-estradiol from zeogrids. Simulated body fluid (SBF) was used as dissolution medium. SBF was prepared by first dissolving 1% SLS (Sodium lauryl sulphate) and 0.90% NaCl in distilled water. The solution was mixed with ethanol in a volume ratio solution:ethanol of 24:1.
The in-vitro release experiments were carried out at room temperature by dispersing 10 mg quantities of the loaded zeogrid into 20 ml quantities of SBF. In order to avoid limitations of the delivery rate by external diffusion constraints, continuous stirring is maintained. The release profile was obtained by measuring drug concentration in the fluid after different times by means of HPLC.

Time after which release of β-estradiol from zeogrid is completed: 30 min
Structure (SMILES): C[C@]12CC[C@@H]3c4ccc(O)cc4CC[C@H]3[C@@H]1CC[C@@H]2O [β-estradiol]
